Test [1] has as its system TNF-α, IL-10, CCL2, and IL-1β gene expression in colon. Nature of the test: QT-PCR gene expression in colon of the DSS-induced IBD model. In kind it is in vivo, mice. The method, then: Animals were euthanized by CO2 at the end of study. Colon length and colon weight (cecum is not included) were recorded, and macroscopic changes were scored based on Table 2. The colon was cleaned using saline, and all feces were removed before weight measurement. The middle part of colon was collected in cassette and fixed in 10% neutral buffered formalin (NBF) for H&E and PAS staining. For left colon, mucosal from colon surface was removed and then snap frozen in liquid nitrogen and store at −80° C. for QT-PCR analysis of TNF-α, IL-10, CCL2, and IL-1β. QT-PCR primers were purchased from Sangon Biotech Co., Ltd.
Treatment of Tissue before RNA Extraction are as follows. • (a) Remove mucosal from colon surface. Cut colon tissue into small pieces on ice. • (b) Weight out the tissue no more than 30 mg and transfer the tissue into a lysing matrix D tube. Totally 700 µL Trizol was added in the tissue and lysing matrix D immediately. • (c) Put the lysing matrix D tubes which contain tissue, Lysing matrix, and 700 μL Trizol into the FastPrep™-24 Sample Preparation System. • (d) Set at speed 6 and grind for 2 min • (e) 140 μL chloroform was added into the tubes, shake the tubes vigorously by vortex for 15 seconds. Incubate at room temperature for 2 min. • (f) 12000 rpm centrifuge for 10 min at 4° C., • (g) Pipet the supernatant to 96 well 2.2 mL deep well plate
RNA Sample Preparation procedure is as follows. • (a) 600 μL Binding Buffer was added into column 1 and 7 • (b) 600 μL DNase Stop Buffer was added into column 2 I 8 • (c) 600 μL Wash Buffer was added into column 3, 4 and 9, 10 • (d) 100 μL Elution Buffer was added into column 5Id 11 • (e) 190 μL DEPC water and 10 μL MagaBio® Reagent was added into column 6 and 12 • (f) Transfer 300 μL of the colorless, upper phase containing the RNA to column 1 and 7 • (g) Put the test plate in nucleic acid purifier • (h) Set the instrument as below in Table 3.
The elution was transferred into a clean nuclease-free centrifuge tube and the RNA sample was store at −80° C.
To use the Takara Prime Script™ Reverse Transcription System, Mix and briefly centrifuge each component before use. Combine the following component volume as in Table 4.
• (a) Store on ice until reverse transcription mix is added. Centrifuge 10 seconds in a micro-centrifuge. Heat in a 42° C. heat block for 2 minutes, 4° C. immediately chill in ice water for at least 5 minutes. • (b) Prepare the reverse transcription reaction mix, 10 μL for each cDNA reaction. Combine on ice, in the order listed. Component volume of step b) (Table 5).
• (c) Combine 20 μL of reverse transcription mix, Centrifuge 10 seconds in a microcentrifuge. • (d) Anneal in a heat block at 37° C. for 15 min, 85° C. for 5 sec, 4° C. save on S100™ Thermal Cycler. • (e) Aliquot the cDNA sample and store at −20° C.
• (a) Make qPCR reaction mixture in one tube based on assay number and replicas. • (b) Prepare primers and master mix mixture according to manufacturer's instructions. And aliquot 9 μL of mixture into each well of the 384 qPCR plate. • (c) Transfer 1 μL of cDNA into each well of a 384 qPCR plate which already contain 9 μL of mixture. Briefly centrifuge the plate. • (d) Seal the plate • (e) Mix thoroughly, spin briefly • (f) Run the PCR Reaction • (g) Place the reaction plate in the instrument. • (h) Set the Applied Biosystems ViiA™ 7 cycling conditions as in Table 6.
Data were expressed as mean±SD. The 2-ΔΔCT method was used to analyze the mRNA expression level. The results were normalized for RNA input using glyceraldehydes-3-phosphate dehydrogenase (GAPDH or other internal controls). Statistical analysis was performed using, one-way ANOVA followed if significant by post-hoc Dunnett test. […] The difference was considered significant when p<0.05

The subject of test [2] is monocytes from PBMC differentiated into M2 macrophage. The experiment in a line: M2 macrophage differentiation assay. In kind it is cell-based, human. The source says:
The purpose of this study was to evaluate the effects of lobeglitazone and other thiazolidinediones on M2 macrophage differentiation. The test articles and vehicles used in this study were lobeglitazone sulfate, pioglitazone HCl, and rosiglitazone.
M2 macrophage differentiation assay timeline was as follows in Table 10.
• (1) Isolate monocytes from PBMC using StemCell® monocyte isolation kit • (2) Count cell and adjust the cell density to 0.5×10^6 cells/ml with fresh complete differentiation medium. Add 5 μL M-CSF stock ([…]) to each 5 ml cell mixture. • (3) Seed isolated monocyte 100 μL per well on 96-well plate. • (4) Add test articles as the plate map using D300e (final concentration in μM). • (5) Differentiate the monocyte to macrophage in the presence of M-CSF to […] for 4 days. • (6) On day 4, add additional medium containing M-CSF. • (7) Add test compounds using D300e (final volume=[…]). • (8) On day 6, add IL-4 at 5× final concentration (IL-4 stock 0.1 mg/ml: dilute 10 μl stock into 10 ml medium for 100 ng/ml. Add 50 μl 100 ng/ml IL-4 to each well containing 200 μL medium to reach 20 ng/ml). • (9) On day 8, spin down the plates at 300×g for 5 min and collect the supernatant for cytokine quantification using MSD. • (10) M2 associated macrophage cytokines of interest are listed below in Table 12.
• (11) Collect cells for flow analysis of viability/CD11c/CD163/CD206.
Flow cytometry and surface marker CD163, CD11c, and CD206 were applied to characterize M2 repolarization. No stain and all stain with surface marker antibody to confirm the optimization of gating strategy.

[3] abbreviates: 0.36 mg/kg PO QD 10 days, vs model.
Setting [4] is: 1.20 mg/kg PO QD 10 days, vs model.
Setting [5] is: 3.61 mg/kg PO QD 10 days, vs model.

The record followed here is patent US20250262209A1, “TREATMENT OF GASTROINTESTINAL DISEASES” (Aclipse Two, Inc., priority 2022, published 2025).

In the case of `COc1ccc(Oc2cc(N(C)CCOc3ccc(CC4SC(=O)NC4=O)cc3)ncn2)cc1` (centres unmarked) [lobeglitazone, 5-(4-(2-((6-(4-Methoxyphenoxy)pyrimidin-4-yl)(methyl)amino)ethoxy)benzyl)thiazolidine-2,4-dione], in test [1] (setting [3]), the “CCL2 gene expression levels in colon” value was “led to decreases”, the “IL-1B gene expression levels in colon” value is reported as “significantly decreased” and the “TNF-α gene expression levels in colon” value is listed as “significantly decreased”. Besides, in test [1] (setting [4]), the “CCL2 gene expression levels in colon” value is listed as “led to decreases”, the “IL-1B gene expression levels in colon” value is given as “significantly decreased” and the “TNF-α gene expression levels in colon” value is given as “significantly decreased”. In test [1] (setting [5]), the “CCL2 gene expression levels in colon” value is “significantly decreased”, the “IL-1β gene expression levels in colon” value was “did not change” and the “TNF-α gene expression levels in colon” value is recorded as “didn't show obvious changes”. Also, the “IL-10 gene expression levels in colon” value in test [1] (lobeglitazone groups (0.36, 1.20, 3.61 mg/kg PO QD 10 days)) is “did not change significantly”. The “GI inflammation, as evidenced by the gene expression data” value in test [1] (mouse DSS model, 0.36 and 1.20, and 3.61 mg/kg) is “significantly decreased”. In addition, the “concentration at which M2 repolarization was promoted (M2 macrophage surface markers, flow cytometry)” value in test [2] (CD163, CD11c, CD206, donor 1 and 2) is given as about 0.025 UM. Further, in test [2] (cytokine analysis (MSD), donor 1), the Eotaxin-2 expression entry is “remarkable promotion”. The MDC expression result in test [2] (cytokine analysis (MSD), donor 3) is given as “remarkable promotion”.
